Test system: not given
Assay: not given
Settings: not given

melting point | SMILES
~ 171.3 °C | COc1cc(N2CCN(CCO)CC2)ccc1Nc1ncc(F)c(-c2cnc3ccccn23)n1 [Example 81, 2-[4-[4-[(5-fluoro-4-imidazo[1,2-a]pyridin-3-yl-pyrimidin-2-yl)amino]-3-methoxy-phenyl]piperazin-1-yl]ethanol]

Target: T1, human IGF1R (Homo sapiens, UniProt P08069)
T1 construct: expressed in transfected cells; host or cells: R+ cells (R- mouse fibroblasts transfected with human IGF1R)
Assay: Inhibition of insulin-like growth factor-1 receptor phosphorylation (immunofluorescence end point cell assay, R+ cells)
Assay type: cell-based
Settings: R+ cells stimulated with 30 nM IGF1
Experimental: This immunofluorescence end point cell assay measures the ability of a test compound to reduce the measured levels of IGF phosphorylation after IGF1 stimulation in R^+ cells. R^+ cells are derived by transfection of R^− mouse fibroblast cells with human IGF1R. R^+ cells are routinely cultured in DMEM growth medium (Gibco BRL, 41966) containing 2 mM L-Glutamine (Invitrogen Code no. 25030-024) and 10% (v/v) foetal bovine serum (FBS)) in a 5% CO2 air incubator at 37° C.
To undertake the assay, the R^+ cells are seeded at 5×10^3 cells/well in DMEM plus 1% foetal calf serum, 1% L-glutamine in 96-well black Packard View plates (PerkinElmer 6005182) and incubated at 37° C. (+5% CO2) in a humidified incubator. […]
Following the compound treatment, the R^+ cells are stimulated with a final concentration of 30 nM IGF1 (Gropep IM001) for 20 minutes at 37° C. […] Additionally, in-house antibodies raised against phospho IGF1R were also used at a suitable titre determined for each batch. […]
The Green Fluorescent phospho IGF1R-associated signal in each well was measured using an Acumen Explorer HTS Reader (TTP Labtech Ltd., Cambridge). Phospho IGF1R-associated fluorescence emission can be detected at 530 nm following excitation at 488 nm. […] These fluorescent objects can be quantified and provide a measure of the phospho IGF1R levels in cells. […]

T1 sequence (P08069 31-1367): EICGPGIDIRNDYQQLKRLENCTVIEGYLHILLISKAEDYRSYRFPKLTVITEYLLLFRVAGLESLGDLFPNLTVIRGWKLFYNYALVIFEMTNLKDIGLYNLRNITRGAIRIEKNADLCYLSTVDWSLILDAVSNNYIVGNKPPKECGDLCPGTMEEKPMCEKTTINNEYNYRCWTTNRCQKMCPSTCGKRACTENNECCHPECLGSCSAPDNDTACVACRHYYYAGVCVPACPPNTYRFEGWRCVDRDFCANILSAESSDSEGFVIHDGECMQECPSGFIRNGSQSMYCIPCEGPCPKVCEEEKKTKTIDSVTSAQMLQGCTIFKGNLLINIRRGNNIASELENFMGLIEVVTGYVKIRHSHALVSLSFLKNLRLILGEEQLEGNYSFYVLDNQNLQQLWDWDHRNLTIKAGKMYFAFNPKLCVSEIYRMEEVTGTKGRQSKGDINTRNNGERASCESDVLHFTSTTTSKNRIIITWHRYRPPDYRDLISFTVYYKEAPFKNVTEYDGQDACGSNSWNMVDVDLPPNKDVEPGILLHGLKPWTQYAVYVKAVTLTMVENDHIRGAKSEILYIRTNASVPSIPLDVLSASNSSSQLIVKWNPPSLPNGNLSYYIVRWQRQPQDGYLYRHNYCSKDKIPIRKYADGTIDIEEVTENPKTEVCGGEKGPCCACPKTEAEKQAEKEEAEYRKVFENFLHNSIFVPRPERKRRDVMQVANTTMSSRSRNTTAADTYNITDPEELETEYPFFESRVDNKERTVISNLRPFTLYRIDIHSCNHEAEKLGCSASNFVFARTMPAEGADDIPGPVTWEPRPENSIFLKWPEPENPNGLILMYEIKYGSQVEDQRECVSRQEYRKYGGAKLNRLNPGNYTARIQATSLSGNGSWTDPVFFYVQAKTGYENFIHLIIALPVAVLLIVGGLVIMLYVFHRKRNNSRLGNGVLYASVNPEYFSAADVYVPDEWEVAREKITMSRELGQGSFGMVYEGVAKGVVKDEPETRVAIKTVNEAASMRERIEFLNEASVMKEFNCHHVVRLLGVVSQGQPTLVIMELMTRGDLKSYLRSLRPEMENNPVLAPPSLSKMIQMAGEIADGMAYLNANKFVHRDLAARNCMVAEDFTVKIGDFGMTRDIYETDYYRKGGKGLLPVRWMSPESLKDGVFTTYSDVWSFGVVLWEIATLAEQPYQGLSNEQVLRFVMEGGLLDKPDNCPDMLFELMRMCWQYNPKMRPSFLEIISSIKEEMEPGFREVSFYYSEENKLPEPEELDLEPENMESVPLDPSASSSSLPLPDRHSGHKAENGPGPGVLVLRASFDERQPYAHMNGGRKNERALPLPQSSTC

IC50 | SMILES
4 nM | COc1cc(N2CC(C)NC(C)C2)ccc1Nc1ncc(Cl)c(-c2cnc3ccccn23)n1 (centres unmarked) [5-chloro-N-[4-(3,5-dimethylpiperazin-1-yl)-2-methoxy-phenyl]-4-imidazo[1,2-a]pyridin-3-yl-pyrimidin-2-amine]

Target: T2, IGFR kinase (Homo sapiens, UniProt P08069)
T2 construct: purchased Millipore
T2 sequence (P08069 31-1367): as above
Assay: Enzyme assay (c), IGFR kinase, Caliper LabChip
Assay type: biochemical
Settings: 30 nM IGFR kinase, 6 uM ATP, 3 uM peptide mix; read-out: IGFR IC50

SMILES | IC50
CNCC(=O)N1CCN(c2ccc(Nc3ncc(Cl)c(-c4cnc5c(F)cc(F)cn45)n3)c(OC)c2)CC1 [Example 248, 1-[4-[4-[[5-chloro-4-(6,8-difluoroimidazo[1,2-a]pyridin-3-yl)pyrimidin-2-yl]amino]-3-methoxy-phenyl]piperazin-1-yl]-2-(methylamino)ethanone] | 6 nM
COc1cc(N2CCN(C(C)=O)CC2)c(C)cc1Nc1ncc(Cl)c(-c2cnc3ccccn23)n1 [Example 278, 1-[4-[4-[(5-chloro-4-imidazo[1,2-a]pyridin-3-yl-pyrimidin-2-yl)amino]-5-methoxy-2-methyl-phenyl]piperazin-1-yl]ethanone] | 8 nM
COc1cc(N2CCOCC2)ccc1Nc1ncc(C)c(-c2cnc3ccccn23)n1 [Example 100, 4-imidazo[1,2-a]pyridin-3-yl-N-(2-methoxy-4-morpholino-phenyl)-5-methyl-pyrimidin-2-amine] | 57 nM
COc1cc(OC2CN(CCO)C2)ccc1Nc1ncc(Cl)c(-c2cnc3ccccn23)n1 [Example 64, 2-[3-[4-[(5-chloro-4-imidazo[1,2-a]pyridin-3-yl-pyrimidin-2-yl)amino]-3-methoxy-phenoxy]azetidin-1-yl]ethanol] | 19 nM
COc1cc(N2CCN(CCO)[C@@H](C)C2)ccc1Nc1ncc(C)c(-c2cnc3ccccn23)n1 [Example 271, 2-[(2S)-4-[4-[(4-imidazo[1,2-a]pyridin-3-yl-5-methyl-pyrimidin-2-yl)amino]-3-methoxy-phenyl]-2-methyl-piperazin-1-yl]ethanol] | 190 nM
COc1cc(N2CCN(C(=O)CN3CCOCC3)CC2)ccc1Nc1ncc(Cl)c(-c2cnc3ccccn23)n1 [Example 275, 1-[4-[4-[(5-chloro-4-imidazo[1,2-a]pyridin-3-yl-pyrimidin-2-yl)amino]-3-methoxy-phenyl]piperazin-1-yl]-2-morpholino-ethanone] | 9 nM
COc1cc(N2CCNC(C(=O)N(C)C)C2)ccc1Nc1ncc(Cl)c(-c2cnc3ccccn23)n1 (centres unmarked) [Example 19, 4-[4-[(5-chloro-4-imidazo[1,2-a]pyridin-3-yl-pyrimidin-2-yl)amino]-3-methoxy-phenyl]-N,N-dimethyl-piperazine-2-carboxamide] | 11 nM
COc1cc(N2CCN(C(C)=O)CC2)ccc1Nc1ncc(C2CC2)c(-c2cnc3c(F)cccn23)n1 [Example 201, 1-[4-[4-[[5-cyclopropyl-4-(8-fluoroimidazo[1,2-a]pyridin-3-yl)pyrimidin-2-yl]amino]-3-methoxy-phenyl]piperazin-1-yl]ethanone] | 88 nM
COc1cc(N2CCN(CC(=O)N(C)CCO)CC2)ccc1Nc1ncc(Cl)c(-c2cnc3ccccn23)n1 [Example 67, 2-[4-[4-[(5-chloro-4-imidazo[1,2-a]pyridin-3-yl-pyrimidin-2-yl)amino]-3-methoxy-phenyl]piperazin-1-yl]-N-(2-hydroxyethyl)-N-methyl-acetamide] | 7 nM
COc1cc(N2CC3CN(C(C)=O)CC(C2)O3)ccc1Nc1ncc(Cl)c(-c2cnc3c(F)cccn23)n1 [Example 215, 1-[3-[4-[[5-chloro-4-(8-fluoroimidazo[1,2-a]pyridin-3-yl)pyrimidin-2-yl]amino]-3-methoxy-phenyl]-9-oxa-3,7-diazabicyclo[3.3.1]nonan-7-yl]ethanone] | 9 nM
COc1cc(N2CCN(CCO)CC2)ccc1Nc1ncc(F)c(-c2cnc3c(F)cccn23)n1 [Example 195, 2-[4-[4-[[5-fluoro-4-(8-fluoroimidazo[1,2-a]pyridin-3-yl)pyrimidin-2-yl]amino]-3-methoxy-phenyl]piperazin-1-yl]ethanol] | 33 nM
COc1cc(N2CCN(CCO)CC2)ccc1Nc1ncc(F)c(-c2cnc3ccccn23)n1 [Example 81, 2-[4-[4-[(5-fluoro-4-imidazo[1,2-a]pyridin-3-yl-pyrimidin-2-yl)amino]-3-methoxy-phenyl]piperazin-1-yl]ethanol] | 30 nM

Second part, the compound after the results:

IC50 | SMILES
9 nM | COc1cc(N2CCN(C(C)=O)CC2)ccc1Nc1ncc(Cl)c(-c2cnc3ccc(Br)cn23)n1 [Example 126.1, 1-[4-[4-[[4-(6-bromoimidazo[1,2-a]pyridin-3-yl)-5-chloropyrimidin-2-yl]amino]-3-methoxyphenyl]piperazin-1-yl]ethanone]
23 nM | COc1cc(OC2CN(C(=O)C3(O)CC3)C2)ccc1Nc1ncc(Cl)c(-c2cnc3ccccn23)n1 [Example 27.5, [3-[4-[(5-chloro-4-imidazo[1,2-a]pyridin-3-yl-pyrimidin-2-yl)amino]-3-methoxy-phenoxy]azetidin-1-yl]-(1-hydroxycyclopropyl)methanone]
37 nM | COc1cc(CN(C)CCO)ccc1Nc1ncc(Cl)c(-c2cnc3ccccn23)n1 [Example 21.2, 2-[[4-[(5-chloro-4-imidazo[1,2-a]pyridin-3-yl-pyrimidin-2-yl)amino]-3-methoxy-phenyl]methyl-methyl-amino]ethanol]
23 nM | COc1cc(CN2CCCN(C)CC2)ccc1Nc1ncc(Cl)c(-c2cnc3ccccn23)n1 [Example 21.11, 5-chloro-4-imidazo[1,2-a]pyridin-3-yl-N-[2-methoxy-4-[(4-methyl-1,4-diazepan-1-yl)methyl]phenyl]pyrimidin-2-amine]
31 nM | COc1cc(CN2CCC(C(N)=O)CC2)ccc1Nc1ncc(Cl)c(-c2cnc3ccccn23)n1 [Example 21.7, 1-[[4-[(5-chloro-4-imidazo[1,2-a]pyridin-3-yl-pyrimidin-2-yl)amino]-3-methoxy-phenyl]methyl]piperidine-4-carboxamide]
30 nM | Cc1ccc(N2CC[C@H](N(C)C)C2)cc1Nc1ncc(Cl)c(-c2cnc3ccccn23)n1 [Example 3.14, 5-chloro-N-[5-[(3S)-3-dimethylaminopyrrolidin-1-yl]-2-methyl-phenyl]-4-imidazo[1,2-a]pyridin-3-yl-pyrimidin-2-amine]
